Broadly, the IC50 is the midpoint of a concentration-inhibition curve. Usually inhibition stands for the relative decrease from the control value, in per cent. The EC50 is the concentration giving half of the maximal effect.

These results are taken from publication PMC9202104 (BMC Biology, 2022).

Data set [1] has as its system ZIKV human strain PAN2016 (2016/Panama). The data set is described as follows: Plaque assay, inhibition of ZIKV infection (strain PAN2016). The procedure:
(§1) After removal of the unbound compounds by centrifugation (after addition of 3% PEG-6000), ZIKV was incubated with Vero E6 cells in 24-well plates at 37°C for 1 h. The cells were then washed with PBS, overlaid with DMEM containing 1% carboxymethyl cellulose and 2% FBS, and cultured at 37°C for 4–5 days, followed by being stained with 0.5% crystal violet. […] Plaques in each well were calculated, and IC50 of compounds for each compound was calculated using the CalcuSyn computer program.

Data set [2] relates to ZIKV human strain R116265. The data set can be described thus: Plaque assay, inhibition of ZIKV infection (strain R116265). The note with it: Zika virus, Vero C1008, Vero E6 cells. The class given is cell-based. As for the experimental part: as §1
The subject of the next data set is ZIKV human strain FLR. The data set is described as follows: Plaque assay, inhibition of ZIKV infection (strain FLR). The note with it: Zika virus, Vero C1008; plaque assay, Vero E6 cells, human strain; read-out: IC50 FLR. The class given is cell-based. As for the experimental part: as §1
Data set [3] concerns ZIKV human strain R103451. The data set is described as follows: Plaque assay, inhibition of ZIKV infection (strain R103451). The note with it: Zika virus, Vero C1008; plaque assay, Vero E6 cells, human strain; read-out: IC50 R103451. The class given is cell-based. The procedure:
as §1

A further data set concerns DENV-3-V1043. The data set is described as follows: Plaque assay, inhibition of DENV-3 infection in LLC-MK2 cells. Format: cell-based. The note with it: Dengue virus, DENV3.
The test system of a further data set is DENV-4-PR-06-65-740. The data set is described as follows: Plaque assay, inhibition of DENV-4 infection in LLC-MK2 cells. Format: cell-based. To be noted: Dengue virus, DENV4.
The test system of a further data set is ZIKV (PAN2016). The data set is described as follows: Time-of-addition experiment in Vero E6 cells. Format: cell-based, Zika virus. The note with it: for inhibition at 15 µM: Zika virus, Vero C1008, Vero E6 cells. As for the experimental part: Briefly, Vero E6 cells (10^5/well) and/or ZIKV were incubated in 24-well plates with or without the above compounds (15 μM) for 1 h before, 1 h after, or the same time during infection of ZIKV (the detailed procedures were described below and published previously). The following six conditions of ZIKV infection were tested: (1) condition 1: pretreatment of the virus. […] The plaque assay was performed following the standard protocol described above and before. (2) condition 2: pretreatment of cells. […] The unbound ZIKV was removed, and the cells were cultured and plaques calculated as in condition 1. (3) Condition 3: attachment. […] After removal of the unbound ZIKV and compounds, the cells were cultured and plaques calculated as in condition 1. (4) Condition 4: cotreatment. […] After removal of the unbound virus and compounds, the cells were cultured and plaques were calculated as in condition 1. (5) condition 5: fusion. Cells were incubated with ZIKV (PAN2016, 300 PFU) at 4°C for 1 h for ZIKV attachment. […] The unbound compounds were removed, and the cells were cultured and plaques calculated as in condition 1. (6) Condition 6: post-entry. Cells were incubated with ZIKV (PAN2016, 100 PFU) at 37°C for 1 h for ZIKV entry. […] The unbound compounds were then removed, and the cells were cultured and calculated for plaques as in condition 1. Since variant conditions may affect the formation of plaques, the use of different PFUs can ensure that the number of plaques in the DMSO control group is about 100/well for each condition.

Data set [4] concerns the target T1, ZIKV full-length envelope (E) protein (Zika virus, UniProt Q32ZE1).
T1 construct: ZIKV full-length E (Aviva Systems Biology, San Diego, CA, USA); purchased Aviva Systems Biology
The data set is described as follows: ELISA binding to ZIKV full-length E protein. As for the experimental part: (§2) Briefly, ELISA plates were coated with each protein (1 μg/ml) at 4°C overnight and were then incubated with blocking buffer containing 2% fat-free milk in PBST (0.05% Tween-20) at 37°C for 2 h. The above compounds, or DMSO control, at serial dilutions were added to the plates and incubated at 37°C for 2 h. After three washes using PBST, the plates were incubated at 37°C for 2 h with ZIKV EDIII-specific human mAb ZKA64-LALA (0.5 μg/ml) (for binding to ZIKV full-length E or EDIII protein), or ZIKV NS2B-NS3-specific mouse sera (for binding to NS2B-NS3 protein). After further washes, the plates were incubated with horseradish peroxidase (HRP)-conjugated anti-human IgG-Fab (1:3,000, Abcam, Cambridge, MS, USA) or anti-mouse IgG (1:3,000, Sigma) antibody at 37°C for 1 h. The plates were incubated with substrate TMB (3,3′,5,5′-tetramethylbenzidine) for 1 min, and the reaction was stopped by addition of 1 N H2SO4. Absorbance at 450 nm (A450 values) was measured by an ELISA microplate reader. Percent binding (% binding) to the E, EDIII, or NS2B-NS3 protein was calculated in the presence or absence of serially diluted compounds using the formula ((1-(E/EDIII/NS2B-NS3-compound)/(E/EDIII/NS2B-NS3))×100), based on which EC50 was calculated using the CalcuSyn program.
On the technique in general: ELISA stands for enzyme-linked immunosorbent assay.

Another data set deals with T2, ZIKV NS2B-NS3 protein (Zika virus, UniProt Q32ZE1).
T2 construct: fused with the genes encoding NS3 protein (residues 1-185) through a linker (Gly4-Thr-Gly4); His6 (C); made in house; host or cells: E. coli
The data set is described as follows: ELISA binding to ZIKV NS2B-NS3 protein. The procedure:
as §2

Data set [5] deals with T3, binding of ZIKV EDIII to EDIII-specific neutralizing mAbs (Zika virus, UniProt A0A024B7W1).
T3 construct: EDIII (residues 298-409 in E protein containing a C-terminal human Fc tag); human Fc (C)
The data set can be described thus: ELISA competition assay, EDIII-mAb binding. To be noted: for IC50: mAb 0.5 μg/mL. As for the experimental part:
ELISA was also used to determine the ability of ST087010 to inhibit the binding between ZIKV EDIII and EDIII-specific human mAbs (SMZAb5, ZKA64-LALA, ZV-67, or Z004) or EDI/II-specific human mAb (ZKA78) control. […] The plates were then sequentially incubated with HRP-conjugated anti-human IgG-Fab antibody and TMB substrate, followed by detection of A450 values. Percent inhibition (% inhibition) of compounds was calculated using the formula ((1-(EDIII-mAb-compound)/(EDIII-mAb))×100), and IC50 was obtained using the CalcuSyn computer program.

Like-named read-outs stand apart in the source and are kept apart here.

T3 sequence (A0A024B7W1 588-699): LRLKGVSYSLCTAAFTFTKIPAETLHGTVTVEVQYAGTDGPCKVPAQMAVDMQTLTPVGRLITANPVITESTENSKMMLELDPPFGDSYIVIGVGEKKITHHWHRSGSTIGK
T2 sequence (Q32ZE1 1499-1683, added parts left off, change not shown): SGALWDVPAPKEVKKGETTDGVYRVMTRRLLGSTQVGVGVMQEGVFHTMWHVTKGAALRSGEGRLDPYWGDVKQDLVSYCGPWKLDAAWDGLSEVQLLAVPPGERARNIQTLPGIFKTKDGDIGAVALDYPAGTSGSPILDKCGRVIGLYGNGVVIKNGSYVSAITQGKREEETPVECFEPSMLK
T1 sequence (Q32ZE1 291-790): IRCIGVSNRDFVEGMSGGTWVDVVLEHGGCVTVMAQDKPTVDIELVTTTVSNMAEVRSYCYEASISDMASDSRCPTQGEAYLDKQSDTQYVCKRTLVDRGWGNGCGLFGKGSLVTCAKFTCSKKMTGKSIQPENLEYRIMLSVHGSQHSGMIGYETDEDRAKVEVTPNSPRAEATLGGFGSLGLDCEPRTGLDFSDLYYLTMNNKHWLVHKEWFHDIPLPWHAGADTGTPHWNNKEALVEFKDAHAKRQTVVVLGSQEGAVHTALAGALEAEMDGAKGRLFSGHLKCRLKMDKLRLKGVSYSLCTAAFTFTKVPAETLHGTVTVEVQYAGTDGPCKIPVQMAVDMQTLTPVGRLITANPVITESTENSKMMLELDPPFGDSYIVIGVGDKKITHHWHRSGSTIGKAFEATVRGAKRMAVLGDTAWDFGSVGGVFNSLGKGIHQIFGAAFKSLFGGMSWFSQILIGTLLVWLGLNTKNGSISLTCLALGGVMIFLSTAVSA

For `Cc1cc2c(C(C)C)c(O)c(O)c(/C=N/n3c(=O)[nH][nH]c3=O)c2c(O)c1-c1c(C)cc2c(C(C)C)c(O)c(O)c(/C=N/n3c(=O)[nH][nH]c3=O)c2c1O` [ST087010], the “SI (CC50/IC50)” value in data set [1] (CC50 Vero E6 / IC50 ZIKV PAN2016) worked out at 15.63. For the same molecule, the IC50 is 3.2 µM in data set [1] (Zika virus, Vero C1008, in Homo sapiens, read-out: IC50 against infection of ZIKV PAN2016, plaque assay, Vero E6 cells); 3.17 ± 0.18 µM in data set [1] (read-out: IC50 against infection of ZIKV PAN2016, plaque assay, Vero E6 cells); 2.9 µM in [2]; 2.8 µM in the data set on ZIKV human strain FLR; 3.6 µM in data set [3]; 3.33 ± 0.08 µM with DENV-3-V1043. In addition, the IC50 in the data set on DENV-4-PR-06-65-740 came to 2.98 ± 0.18 µM; in [5] (IC50 blocking EDIII binding to mAb SMZAb5, ELISA competition) it was 5.72 µM; in data set [5] (IC50 blocking EDIII binding to mAb Z004, ELISA competition), 44.5 µM; in [5] (IC50 blocking EDIII binding to mAb ZKA64-LALA, ELISA competition) it was 4.17 µM; in [5] (IC50 blocking EDIII binding to mAb ZV-67, ELISA competition) it was 6.7 µM. For the same molecule, the “Inhibition of ZIKV infection, condition 2: pretreatment of cells” value in the data set with ZIKV (PAN2016) (15 μM, Vero E6 cells) was “no, or little”. Moreover, the “Inhibition of ZIKV infection, condition 4: cotreatment” value in the data set with ZIKV (PAN2016) (15 μM, Vero E6 cells) is reported as “no, or little”. The “Inhibition of ZIKV infection, condition 5: fusion” value in the data set on ZIKV (PAN2016) (15 μM, Vero E6 cells) was “no, or little”. The “Inhibition of ZIKV infection, condition 1: pretreatment of the virus” value in the data set with ZIKV (PAN2016) (15 μM, virus incubated with compound at 37°C for 1 h before Vero E6 cells) was “almost completely inhibited”. Also, the inhibition at 15 µM is under 40% in the data set on ZIKV (PAN2016) (4°C 1 h, read-out: Inhibition of ZIKV infection, condition 3: attachment) and under 20% with ZIKV (PAN2016) (read-out: Inhibition of ZIKV infection, condition 6: post-entry). The EC50 in data set [4] came to 6.47 µM; on ZIKV NS2B-NS3 protein, 21.9 µM. In addition, the “Inhibition with EDI/II-specific mAb control ZKA78” value in data set [5] (ELISA competition, ZKA78 did not bind to EDIII) is “no inhibition”.
